Experimental data from patent US8012956B2, “Tropane compounds” (Exelixis, Inc., priority 2007, dated 2011).

What follows are molecules tested against HSP90 (Homo sapiens, UniProt P07900) (assay: HSP90 inhibition (HSP90 IC50)).
Assay type: biochemical

Question: For `COc1cccc(C(=O)N[C@H]2C[C@H]3CC[C@@H](C2)N3c2ccc(C(=O)NN)cn2)c1C` [N-{8-[5-(hydrazinocarbonyl)pyridin-2-yl]-8-azabicyclo[3.2.1]oct-3-endo-yl}-2-methyl-3-(methyloxy)benzamide], which IC50 is on record?
Answer: 2000 to 10000 nM

Question: With `CCN1CCC[C@@H](NC(=O)c2ccc(N3C4CCC3CC(NC(=O)c3cc(C)c(C(N)=O)cc3C)C4)nc2)C1` (stereo partly drawn) [N-{8-[5-({[(3R)-1-ethylpiperidin-3-yl]amino}carbonyl)pyridin-2-yl]-8-azabicyclo[3.2.1]oct-3-endo-yl}-2,5-dimethylbenzene-1,4-dicarboxamide] as the molecule, how does the IC50 read?
Answer: < 500 nM

Question: For `CCN1CC[C@@H](NC(=O)c2ccc(N3C4CCC3CC(NC(=O)c3cc(C)c(C(N)=O)cc3C)C4)nc2)C1` (stereo partly drawn) [N-{8-[5-({[(3R)-1-ethylpyrrolidin-3-yl]amino}carbonyl)pyridin-2-yl]-8-azabicyclo[3.2.1]oct-3-endo-yl}-2,5-dimethylbenzene-1,4-dicarboxamide], which IC50 is on record?
Answer: < 500 nM

Question: With `CCN1CCC[C@H](NC(=O)c2ccc(N3C4CCC3CC(NC(=O)c3cc(C)c(C(N)=O)cc3C)C4)nc2)C1` (stereo partly drawn) [N-{8-[5-({[(3S)-1-ethylpiperidin-3-yl]amino}carbonyl)pyridin-2-yl]-8-azabicyclo[3.2.1]oct-3-endo-yl}-2 5-dimethylbenzene-1,4-dicarboxamide] as the molecule, how does the IC50 read?
Answer: 500 to 999 nM

Question: For `CCN1CC[C@H](NC(=O)c2ccc(N3C4CCC3CC(NC(=O)c3cc(C)c(C(N)=O)cc3C)C4)nc2)C1` (stereo partly drawn) [N-{8-[5-({[(3S)-1-ethylpyrrolidin-3-yl]amino}carbonyl)pyridin-2-yl]-8-azabicyclo[3.2.1]oct-3-endo-yl}-2,5-dimethylbenzene-1,4-dicarboxamide], which IC50 is on record?
Answer: < 500 nM

Question: Which IC50 does the source give for `Cc1cnc(CNC(=O)c2ccc(N3[C@@H]4CC[C@H]3C[C@@H](NC(=O)c3ccc(C(N)=O)cc3)C4)nc2)cn1` [N-{8-[5-({[(5-methylpyrazin-2-yl)methyl]amino}carbonyl)pyridin-2-yl]-8-azabicyclo[3.2.1]oct-3-endo-yl}benzene-1,4-dicarboxamide] here?
Answer: 1000 to 2000 nM

Question: For `COc1ccc([C@H](C)NC(=O)c2ccc(N3C4CCC3CC(NC(=O)c3cccc(OC)c3C)C4)nc2)c(F)c1` (stereo partly drawn) [N-{(1S)-1-[2-fluoro-4-(methyloxy)phenyl]ethyl}-6-[3-endo-({[2-methyl-3-(methyloxy)phenyl]carbonyl}amino)-8-azabicyclo[3.2.1]oct-8-yl]pyridine-3-carboxamide], which IC50 is on record?
Answer: < 500 nM

Question: With `CCNC(=O)[C@@H](NC(=O)c1ccc(N2C3CCC2CC(NC(=O)c2cccc(OC)c2C)C3)nc1)c1ccc(OC)cc1` (stereo partly drawn) [N-{(1S)-2-(ethylamino)-1-{4-(methyloxy)phenyl]-2-oxoethyl}-6-[3-endo-({[2-methyl-3-(methyloxy)phenyl]carbonyl}amino)-8-azabicyclo[3.2.1]oct-8-yl]pyridine-3-carboxamide] as the molecule, how does the IC50 read?
Answer: 500 to 999 nM

Question: For `CNC(=O)[C@@H](NC(=O)c1ccc(N2C3CCC2CC(NC(=O)c2cccc(OC)c2C)C3)nc1)c1ccc(OC)cc1` (stereo partly drawn) [N-{(1S)-2-(methylamino)-1-[4-(methyloxy)phenyl]-2-oxoethyl}-6-[3-endo-({[2-methyl-3-(methyloxy)phenyl]carbonyl}amino)-8-azabicyclo[3.2.1]oct-8-yl]pyridine-3-carboxamide], which IC50 is on record?
Answer: 500 to 999 nM

Question: How did the IC50 turn out when `COc1ccc([C@H](NC(=O)c2ccc(N3C4CCC3CC(NC(=O)c3cccc(OC)c3C)C4)nc2)C(N)=O)cc1` (stereo partly drawn) [N-{(1S)-2-amino-1-[4-(methyloxy)phenyl]-2-oxoethyl}-6-[3-endo-({[2-methyl-3-(methyloxy)phenyl]carbonyl}amino)-8-azabicyclo[3.2.1]oct-8-yl]pyridine-3-carboxamide] was run?
Answer: 500 to 999 nM

Question: How did the IC50 turn out when `COc1cccc(C(=O)N[C@H]2C[C@H]3CC[C@@H](C2)N3c2ccc(C(=O)NCc3cccc(OC)c3OC)cn2)c1C` [N-{[2,3-bis(methyloxy)phenyl]methyl}-6-[3-endo-({[2-methyl-3-(methyloxy)phenyl]carbonyl}amino)-8-azabicyclo[3.2.1]oct-8-yl]pyridine-3-carboxamide] was run?
Answer: 2000 to 10000 nM

Question: How did the IC50 turn out when `COc1ccc(CNC(=O)c2ccc(N3[C@@H]4CC[C@H]3C[C@@H](NC(=O)c3cccc(OC)c3C)C4)nc2)c(OC)c1` [N-{[2,4-bis(methyloxy)phenyl]methyl}-6-[3-endo-({[2-methyl-3-(methyloxy)phenyl]carbonyl}amino)-8-azabicyclo[3.2.1]oct-8-yl]pyridine-3-carboxamide] was run?
Answer: 500 to 999 nM

Question: For `COc1cc(F)c(CNC(=O)c2ccc(N3[C@@H]4CC[C@H]3C[C@@H](NC(=O)c3cccc(OC)c3C)C4)nc2)c(F)c1` [N-{[2,6-difluoro-4-(methyloxy)phenyl]methyl}-6-[3-endo-({[2-methyl-3-(methyloxy)phenyl]carbonyl}amino)-8-azabicyclo[3.2.1]oct-8-yl]pyridine-3-carboxamide], which IC50 is on record?
Answer: < 500 nM

Question: How did the IC50 turn out when `CCOc1ccccc1CNC(=O)c1ccc(N2[C@@H]3CC[C@H]2C[C@@H](NC(=O)c2cccc(OC)c2C)C3)nc1` [N-{[2-(ethyloxy)phenyl]methyl}-6-[3-endo-({[2-methyl-3-(methyloxy)phenyl]carbonyl}amino)-8-azabicyclo[3.2.1]oct-8-yl]pyridine-3-carboxamide] was run?
Answer: 500 to 999 nM

Question: `COc1ccc(CNC(=O)c2ccc(N3[C@@H]4CC[C@H]3C[C@@H](NC(=O)c3cccc(OC)c3C)C4)nc2)c(Cl)c1` [N-{[2-chloro-4-(methyloxy)phenyl]methyl}-6-[3-endo-({[2-methyl-3-(methyloxy)phenyl]carbonyl}amino)-8-azabicyclo[3.2.1]oct-8-yl]pyridine-3-carboxamide] was tested. Which IC50 did it give?
Answer: < 500 nM

Question: How did the IC50 turn out when `COc1ccc(CNC(=O)c2ccc(N3[C@@H]4CC[C@H]3C[C@@H](NC(=O)c3cccc(OC)c3C)C4)nc2)c(F)c1` [N-{[2-fluoro-4-(methyloxy)phenyl]methyl}-6-[3-endo-({[2-methyl-3-(methyloxy)phenyl]carbonyl}amino)-8-azabicyclo[3.2.1]oct-8-yl]pyridine-3-carboxamide] was run?
Answer: < 500 nM

Question: For `COc1cccc(C(=O)N[C@H]2C[C@H]3CC[C@@H](C2)N3c2ccc(C(=O)NCc3c(F)cccc3OC)cn2)c1C` [N-{[2-fluoro-6-(methyloxy)phenyl]methyl}-6-[3-endo-({[2-methyl-3-(methyloxy)phenyl]carbonyl}amino)-8-azabicyclo[3.2.1]oct-8-yl]pyridine-3-carboxamide], which IC50 is on record?
Answer: 1000 to 2000 nM

Question: With `COc1cc(CNC(=O)c2ccc(N3[C@@H]4CC[C@H]3C[C@@H](NC(=O)c3cccc(OC)c3C)C4)nc2)cc(OC)c1` [N-{[3,5-bis(methyloxy)phenyl]methyl}-6-[3-endo-({[2-methyl-3-(methyloxy)phenyl]carbonyl}amino)-8-azabicyclo[3.2.1]oct-8-yl]pyridine-3-carboxamide] as the molecule, how does the IC50 read?
Answer: 1000 to 2000 nM

Question: With `COc1cccc(C(=O)N[C@H]2C[C@H]3CC[C@@H](C2)N3c2ccc(C(=O)NCc3ccc(N4CCN(C)CC4)c(F)c3)cn2)c1C` [N-{[3-fluoro-4-(4-methylpiperazin-1-yl)phenyl]methyl}-6-[3-endo-({[2-methyl-3-(methyloxy)phenyl]carbonyl}amino)-8-azabicyclo[3.2.1]oct-8-yl]pyridine-3-carboxamide] as the molecule, how does the IC50 read?
Answer: < 500 nM

Question: With `COc1ccc(CNC(=O)c2ccc(N3[C@@H]4CC[C@H]3C[C@@H](NC(=O)c3cccc(OC)c3C)C4)nc2)cc1F` [N-{[3-fluoro-4-(methyloxy)phenyl]methyl}-6-[3-endo-({[2-methyl-3-(methyloxy)phenyl]carbonyl}amino)-8-azabicyclo[3.2.1]oct-8-yl]pyridine-3-carboxamide] as the molecule, how does the IC50 read?
Answer: < 500 nM

Question: How did the IC50 turn out when `COc1cc(F)ccc1CNC(=O)c1ccc(N2[C@@H]3CC[C@H]2C[C@@H](NC(=O)c2cccc(OC)c2C)C3)nc1` [N-{[4-fluoro-2-(methyloxy)phenyl]methyl}-6-[3-endo-({[2-methyl-3-(methyloxy)phenyl]carbonyl}amino)-8-azabicyclo[3.2.1]oct-8-yl]pyridine-3-carboxamide] was run?
Answer: 1000 to 2000 nM

Question: With `COc1cc(CNC(=O)c2ccc(N3[C@@H]4CC[C@H]3C[C@@H](NC(=O)c3cccc(OC)c3C)C4)nc2)ccc1F` [N-{[4-fluoro-3-(methyloxy)phenyl]methyl}-6-[3-endo-({[2-methyl-3-(methyloxy)phenyl]carbonyl}amino)-8-azabicyclo[3.2.1]oct-8-yl]pyridine-3-carboxamide] as the molecule, how does the IC50 read?
Answer: 500 to 999 nM

Question: For `CCOC(=O)N1CCC(NC(=O)c2ccc(N3[C@@H]4CC[C@H]3C[C@@H](NC(=O)c3cccc(OC)c3C)C4)nc2)CC1` [ethyl 4-[({6-[3-endo-({[2-methyl-3-(methyloxy)phenyl]carbonyl}amino)-8-azabicyclo[3.2.1]oct-8-yl]pyridin-3-yl}carbonyl)amino]piperidine-1-carboxylate], which IC50 is on record?
Answer: < 500 nM

Question: For “N4-(8-{5-[({(1S)- 1-[4-(4- methylpiperazin-1- yl)phenyl]ethyl}amino)carbonyl]pyridin- 2-yl}-8-azabicyclo[3.2.1]oct-3- endo-yl)-2-(phenylamino)benzene- 1,4-dicarboxamide”, which IC50 is on record?
Answer: < 500 nM

Question: With “N4-[8-(5-butanoylpyridin-2-yl)-8- azabicyclo[3.2.1]oct-3-endo-yl]-2- [(cyclopropylmethyl)amino]benzene- 1,4-dicarboxamide” as the molecule, how does the IC50 read?
Answer: 500 to 999 nM

Question: “N4-{8-[5- (cyclopropylcarbonyl)pyridin-2-yl]-8- azabicyclo[3.2.1]oct-3-endo-yl}-2- [(cis-4-hydroxy-4- methylcyclohexyl)amino]benzene- 1,4-dicarboxamide” was tested. Which IC50 did it give?
Answer: < 500 nM

Question: With “N-[8-(5-acetylpyradin-2-yl)-8- azabicyclo[3.2.1]oct-3-endo-yl]-2- methyl-3-(methyloxy)benzamide” as the molecule, how does the IC50 read?
Answer: 500 to 999 nM

Question: With “N-[(1S,2S)-2-hydroxycyclopentyl]-6- [3-endo-({[2-methyl-3- (methyloxy)phenyl]oarbonyl}amino)- 8-azabicyclo[3.2.1]oct-8-yl]pyridine- 3-carboxamide” as the molecule, how does the IC50 read?
Answer: 500 to 999 nM

Question: “N-{8-[5-(cyclopropylcarbonyl)pyridin- 2-yl]-8-azabicyclo[3.2.1]oct-3-endo- yl}-5-[(1-ethylpropyl)amino]-2- methylbenzene-1,4-dicarboxamide” was tested. Which IC50 did it give?
Answer: < 500 nM
